The source of these data is PubChem BioAssay (NCI).

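Test compounds were applied to cells in 96-well plates for 48 hours at 5 doses. GI50: concentration for 50% inhibition of growth. TGI denotes the concentration required for complete inhibition of growth.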 Some results are limits rather than exact numbers.

The first assay deals with M14 melanoma. The assay is described as follows: DTP human tumour cell line panel, 48 h.
Take `CC1CC2C(=O)NC(=O)C2c2[nH]c3ccccc3c21` (centres undefined): the total growth inhibition concentration (TGI) (commonly the concentration at which net growth stops) was more than 100 µM.
Take `Cc1ccc2c(c1)C1(C)OC(CC(N)C1O)O2` (centres undefined): the concentration for total growth inhibition (TGI) was more than 100 µM.
In turn, `COC(=O)[C@@H]1CSC(=S)N1C(=O)C[C@H]1CC=CC[C@H]1CC(=O)Sc1ccccc1` gave a TGI of 32.4 µM.
Regarding `COc1cc(Cn2cc3c(c2)-c2oncc2CC3)cc(OC)c1OC`, the GI50 (usually the concentration that inhibits growth by half) is 27.4 nM and the TGI was determined as 38.9 µM.
`CC1(Sc2ccccc2)CN(Cc2ccccc2)C1=O` (centres undefined): the TGI is more than 100 µM.
Same read-out and setting: in the case of `C=C1C(=O)OC2CC3(C)C=CC(=O)C(=C)C3CC12` (centres undefined) it was 2.86 µM.
Consider `COc1cccc(OC(=O)c2ccccc2Nc2ccnc(C(F)(F)F)c2)c1`, for which the GI50 is 1360 nM and the total growth inhibition concentration (TGI) amounted to 4.04 µM.
Turning to `CCOP(=O)(OCC)C1CCCCOC1=O` (centres undefined), the total growth inhibition concentration (TGI) was more than 100 µM.

In a further assay the test system is NCI-H522 lung. The assay is described as follows: DTP human tumour cell line panel, 48 h.
As for `CN(C)c1ccc2c(NCCCCCCNc3ccnc4cc(N(C)C)ccc34)ccnc2c1`, the concentration for total growth inhibition (TGI) came to 25.2 µM. This lies in the double-digit micromolar range.
Consider `CCN1C(=O)N(CC)C2C1NN=c1s/c(=C3\C(=O)N(C(C)C)c4ccccc43)c(=O)n12` (centres undefined), for which the GI50 is 465 nM and the TGI was more than 100 µM.
`Nc1cc(=O)[nH]c(SC2=NC(N)CC(O)C2)n1` (centres undefined) gave a TGI of more than 100 µM.
With `CC(=O)[O][Pb]([O]C(C)=O)([c]1ccccc1)[c]1ccccc1`, the GI50 is 657 nM and the TGI worked out at 7.46 µM.
In the case of `CCC[CH2][Sn]([CH2]CCC)([O]C(C)=O)[O]C(C)=O`, the concentration for 50% growth inhibition (GI50) is 147 nM and the TGI came to 0.324 µM.
For `COC(=O)CCC(=O)N1Cc2cc(C)ccc2N(C(=O)CCC(=O)OC)Cc2cc(C)ccc21`, the TGI is more than 100 µM.
`C=C1C(=O)O[C@H]2C[C@@H](C)[C@@H]3CC(=O)OC[C@@]3(C)CC12` (some centres undefined) had a TGI of 12 µM.
Consider `CS(=O)(=O)CC1=Nc2nnc(CCCCCCCc3nnc4n3C(=O)C(CS(C)(=O)=O)=N4)n2C1=O`, for which the TGI was more than 100 µM.
The same measure, in the same setting: in the case of `O=C(NCCCCCCNC(=O)c1cccc2ccccc12)c1cccc2ccccc12` it was more than 100 µM; in that of `COC12C=CC(CC1)c1c(O)ccc(O)c12` (centres undefined), 35.1 µM.
On to `Nc1ncnc2sc(=S)c3c(c12)CCC3`, for which the GI50 is 47100 nM and the TGI is more than 100 µM.
Compound `CC1=C2CCCC2C/C(=N/Nc2ccc([N+](=O)[O-])cc2[N+](=O)[O-])CC1` (centres undefined) showed a TGI of more than 100 µM.
As to `COc1cc2cc(Oc3ccc(NC(=O)Nc4ccc(Cl)c(C(F)(F)F)c4)cc3)c(C)nc2cc1OCCN1CCCCC1`, the GI50 was 1590 nM and the total growth inhibition concentration (TGI) was 3.26 µM.
In the case of `C=CCC(N[C@H](CO)C(C)C)c1cn(C(=O)OCC)c2ccccc12` (some centres undefined), the GI50 was 17900 nM and the concentration for total growth inhibition (TGI) is 40.2 µM.
In turn, `CC1CC2C(=O)NC(=O)C2c2[nH]c3ccccc3c21` (centres undefined) showed a total growth inhibition concentration (TGI) of more than 100 µM.
Take `Cc1ccc2c(c1)C1(C)OC(CC(N)C1O)O2` (centres undefined): the TGI is more than 100 µM.
`COC(=O)[C@@H]1CSC(=S)N1C(=O)C[C@H]1CC=CC[C@H]1CC(=O)Sc1ccccc1` yielded a total growth inhibition concentration (TGI) of 18.2 µM.
For the compound `COc1cc(Cn2cc3c(c2)-c2oncc2CC3)cc(OC)c1OC`, the GI50 is 39.8 nM and the TGI was 1.29 µM.
In turn, `CC1(Sc2ccccc2)CN(Cc2ccccc2)C1=O` (centres undefined) showed a TGI of more than 100 µM.
`C=C1C(=O)OC2CC3(C)C=CC(=O)C(=C)C3CC12` (centres undefined) yielded a TGI of 1.69 µM. This lies in the single-digit micromolar range.
As for `COc1cccc(OC(=O)c2ccccc2Nc2ccnc(C(F)(F)F)c2)c1`, the GI50 was 7610 nM and the TGI was more than 100 µM.

For another assay, the system named is EKVX NSCLC. The assay is described as follows: DTP human tumour cell line panel, 48 h.
Take `CN(C)c1ccc2c(NCCCCCCNc3ccnc4cc(N(C)C)ccc34)ccnc2c1`: the concentration for total growth inhibition (TGI) is more than 100 µM.
As to `CCN1C(=O)N(CC)C2C1NN=c1s/c(=C3\C(=O)N(C(C)C)c4ccccc43)c(=O)n12` (centres undefined), the GI50 was 606 nM and the TGI is more than 100 µM.
Consider `Nc1cc(=O)[nH]c(SC2=NC(N)CC(O)C2)n1` (centres undefined), for which the concentration for total growth inhibition (TGI) was more than 100 µM.
As to `CC(=O)[O][Pb]([O]C(C)=O)([c]1ccccc1)[c]1ccccc1`, the GI50 is more than 35000 nM and the TGI is more than 100 µM.
In turn, `CN1CCc2c1nc(-c1ccccc1)c1c2N(C)CC1` displayed a total growth inhibition concentration (TGI) of more than 100 µM.
As for `CCC[CH2][Sn]([CH2]CCC)([O]C(C)=O)[O]C(C)=O`, the GI50 is 1840 nM and the TGI was determined as 4.94 µM.
As to `COC(=O)CCC(=O)N1Cc2cc(C)ccc2N(C(=O)CCC(=O)OC)Cc2cc(C)ccc21`, the total growth inhibition concentration (TGI) was more than 100 µM.
Consider `C=C1C(=O)O[C@H]2C[C@@H](C)[C@@H]3CC(=O)OC[C@@]3(C)CC12` (some centres undefined), for which the TGI was more than 100 µM.
On to `CS(=O)(=O)CC1=Nc2nnc(CCCCCCCc3nnc4n3C(=O)C(CS(C)(=O)=O)=N4)n2C1=O`, for which the TGI was more than 100 µM.
`O=C(NCCCCCCNC(=O)c1cccc2ccccc12)c1cccc2ccccc12`: the TGI was more than 100 µM.
Still for that read-out and setting: for `COC12C=CC(CC1)c1c(O)ccc(O)c12` (centres undefined) the value was more than 100 µM.
Turning to `Nc1ncnc2sc(=S)c3c(c12)CCC3`, the GI50 is 18900 nM and the TGI was found to be 58.8 µM.
In the same order, the values of `COc1cc2cc(Oc3ccc(NC(=O)Nc4ccc(Cl)c(C(F)(F)F)c4)cc3)c(C)nc2cc1OCCN1CCCCC1` are 1460 nM and 2.88 µM.
On to `C=CCC(N[C@H](CO)C(C)C)c1cn(C(=O)OCC)c2ccccc12` (some centres undefined), for which the GI50 was 22900 nM and the concentration for total growth inhibition (TGI) was found to be 77 µM.
`CC1CC2C(=O)NC(=O)C2c2[nH]c3ccccc3c21` (centres undefined) showed a TGI of more than 100 µM.
Still for that read-out and setting: in the case of `Cc1ccc2c(c1)C1(C)OC(CC(N)C1O)O2` (centres undefined) it was more than 100 µM; in that of `COC(=O)[C@@H]1CSC(=S)N1C(=O)C[C@H]1CC=CC[C@H]1CC(=O)Sc1ccccc1`, 32.2 µM.
As to `COc1cc(Cn2cc3c(c2)-c2oncc2CC3)cc(OC)c1OC`, the concentration for 50% growth inhibition (GI50) is 46.7 nM and the TGI was more than 65.7 µM.
For `CC1(Sc2ccccc2)CN(Cc2ccccc2)C1=O` (centres undefined), the concentration for total growth inhibition (TGI) was more than 100 µM.
On the same count and under the same terms, in the case of `C=C1C(=O)OC2CC3(C)C=CC(=O)C(=C)C3CC12` (centres undefined) it was 6.85 µM.
For the compound `COc1cccc(OC(=O)c2ccccc2Nc2ccnc(C(F)(F)F)c2)c1`, the GI50 was 6620 nM and the TGI was more than 100 µM.
Regarding `CCOP(=O)(OCC)C1CCCCOC1=O` (centres undefined), the concentration for total growth inhibition (TGI) was more than 100 µM.
